In assay [1] the test system is male Wistar rats. Briefly: ICSS thresholds during and after withdrawal from chronic nicotine, bupropion. It counts as in vivo, rat. The source says:
Trials began with an electrical stimulus followed by a 7.5-s response window within which the animal could make a response to receive a second contingent stimulus identical to the initial noncontingent stimulus. A response during this 7.5-s window was considered a positive response, whereas the lack of a response was considered a negative response. Additional responses during a 2-s period immediately following a positive response had no consequence. The intertrial interval (ITI) that followed either a positive response or the end of the response window (in the case of a negative response) ranged from 7.5 to 12.5 s with an average duration of 10 s. […] Subjects then were tested on a current-threshold procedure in which stimulus intensities were varied during four alternating descending and ascending series with a step size of […]. Blocks of three trials were offered at each current step with the starting current of the first descending series set at […] above the subjects' individual baseline thresholds estimated at the end of preliminary training. […] An ascending series was terminated after two consecutive blocks of trials during which the animal made positive responses on at least two out of the three trials or after 15 successive increments were presented. The mean of the four current thresholds from the alternating series was defined as the subject's ICSS threshold for that session. A series was terminated after either 15 stimulus increments (or decrements) had occurred, or after the determination of the threshold for the series (see below). Each test session typically lasted 30 min.
Naive animals were prepared with osmotic minipumps containing either an individualized nicotine solution (3.16 mg/kg per day, free base) or saline. […] After implantation of the minipumps, thresholds were assessed daily thereafter to assess the effects of chronic nicotine exposure on reward thresholds. Seven days (exactly seven 24-h periods) after pump insertion, the pumps were removed in order to precipitate the nicotine withdrawal syndrome. ICSS thresholds were measured 12, 18, 24, 36, 48 and 72 h after pump removal. Animals were injected with bupropion (0, 10, 20, 40 mg/kg IP; n=8-11) 30 min prior to the 18-h time point.

Assay [2] has as its system Wistar rats. Briefly: Cocaine self-administration under a fixed ratio schedule, ShA and LgA rats. It is filed as in vivo, rat. The procedure: Rats (n=14) were food restricted to maintain them at 85% of their normal body weight obtained under free-feeding conditions, then trained to press a lever for 45 mg food pellets on a fixed-ratio 5 (FR5) schedule of reinforcement. […] Thus, a FR5 TO20 sec schedule of reinforcement was used.
The frequency of the stimulation was selected for individual animals so that baseline current-intensity thresholds of each subject were within 50-200 μA, and thus allowed both threshold elevations and lowerings to be detected. The frequency was held constant throughout the experiment. […] Current intensities were altered in 5 μA steps. […] Each testing session was ~30 min in duration. […] From day 10 onwards (the ‘escalation’ period), access to cocaine self-administration was increased from 1 h to 6 h per daily session in one group of rats (Long Access or LgA rats; n=7). Previous studies have shown that this schedule of access to cocaine self-administration results in a progressive increase or ‘escalation’ in daily cocaine consumption (Ahmed and Koob, 1997; Ahmed et al. 2001). In the other group (Short Access or ShA rats; n=7), access to cocaine self-administration was maintained at 1 h per daily session. Previous studies have shown that this schedule of access to cocaine self-administration maintains a stable level of daily cocaine consumption. After 22 days of 1 h (ShA) or 6 h (LgA) daily access to cocaine self-administration, both groups of rats received their first MPEP injection.

Assay [3] concerns Wistar rats. Briefly: Nicotine self-administration under a fixed ratio schedule (LY341495, LY341495 and MPEP). Conditions: MPEP 1 mg/kg alone.

Turning to `CN1CCCC1c1cccnc1` (single isomer, unassigned; (-)) [nicotine, (−)-1-methyl-2-(3-pyridyl) pyrrolidine], the “day of maximal threshold-lowering effect” value in assay [1] (nicotine via minipumps) was 3 days. Moreover, the brain reward threshold entry in assay [1] (nicotine via minipumps 3.16 mg/kg per day for 7 days) is given as “small yet significant reduction in brain reward threshold”. In addition, the “time points with significant elevation in reward thresholds post-withdrawal” value in assay [1] (nicotine withdrawal, saline-injected animals) was “up to 36 h”. Moreover, in assay [1] (withdrawal from chronic nicotine administration), the brain reward thresholds result is recorded as “significantly elevated brain reward thresholds”.
As to `Cc1cccc(C#Cc2ccccc2)n1` [MPEP, 2-methyl-6-(phenylethynyl)-pyridine], the cocaine responding entry in assay [2] (3, 6 and 9 mg/kg MPEP, ShA and LgA rats collapsed) was “significantly decreased cocaine responding in the collapsed group”; in assay [2] (3, 6 and 9 mg/kg MPEP, ShA rats) it was “significantly decreased cocaine responding in ShA rats”; in assay [2] (only the highest dose of MPEP (9 mg/kg), LgA rats), “significantly decreased cocaine responding in LgA rats”. Moreover, the cocaine self-administration entry in assay [2] (MPEP 1-9 mg/kg, FR5 TO20 sec) is “decreased cocaine self-administration in ShA and LgA rats”. The “cocaine or nicotine self-administration” value in assay [3] is reported as “has no effects on cocaine or nicotine self-administration”.

Values taken from US8354447B2, “mGLU receptors antagonists for treating disorders associated with mGLU receptors including addiction and depression” (The Scripps Research Institute, priority 2002, dated 2013).
